Laboratory results: US7704995B2 (Exelixis, Inc., priority 2003, dated 2010)

Molecular target: T1, Chk1 (Homo sapiens, UniProt O14757)
T1 construct: purchased Upstate Biotechnology
T1 sequence (O14757 1-476): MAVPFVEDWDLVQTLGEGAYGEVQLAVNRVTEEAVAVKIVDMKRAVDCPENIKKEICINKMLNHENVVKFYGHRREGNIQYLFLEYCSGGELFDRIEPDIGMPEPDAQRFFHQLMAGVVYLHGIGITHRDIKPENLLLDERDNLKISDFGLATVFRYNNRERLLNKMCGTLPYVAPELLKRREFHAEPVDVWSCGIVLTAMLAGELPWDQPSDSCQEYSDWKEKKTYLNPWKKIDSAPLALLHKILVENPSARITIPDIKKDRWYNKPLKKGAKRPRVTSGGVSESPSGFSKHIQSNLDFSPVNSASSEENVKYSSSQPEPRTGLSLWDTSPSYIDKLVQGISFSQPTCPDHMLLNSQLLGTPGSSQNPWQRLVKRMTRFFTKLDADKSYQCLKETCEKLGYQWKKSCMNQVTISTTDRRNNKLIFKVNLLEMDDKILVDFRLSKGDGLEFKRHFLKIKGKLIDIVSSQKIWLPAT
Experiment: Chk1 kinase assay: incorporation of γ-33P ATP into immobilized myelin basic protein
Assay type: biochemical
Settings: Table 11, Chk1 only; class symbols A-D; read-out: Chk1 IC50
Summary of the method: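 Plates coated with MBP, then kinase reactions in Hepes pH 7.6 buffer with 10 mM MgCl2 and 1% DMSO were started by adding unlabeled plus γ-33P ATP (10 μM for Chk1 at 10 nM enzyme; 30 μM for Chk2 at 20 nM enzyme). After 1 h at room temperature, plates were washed and counted.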

| SMILES | IC50 [nM] |
| --- | --- |
| Nc1ncc(-c2cccc(CNS(=O)(=O)c3ccccc3OC(F)(F)F)c2)nc1C(=O)N[C@H]1CCCNC1 [Example 917, 3-amino-N-[(3S)-piperidin-3-yl]-6-(3-{[({2-[(trifluoromethyl)oxy]phenyl}sulfonyl)amino]methyl}phenyl)pyrazine-2-carboxamide] | 50 to 1000 |
| Nc1ncc(-c2cccc(CNS(=O)(=O)c3ccc(C(F)(F)F)cc3)c2)nc1C(=O)N[C@H]1CCCNC1 [Example 918, 3-amino-N-[(3S)-piperidin-3-yl]-6-{3-[({[4-(trifluoromethyl)phenyl]sulfonyl}amino)methyl]phenyl}pyrazine-2-carboxamide] | 50 to 1000 |
| Nc1ncc(-c2cccc(CNC(=O)Nc3ccccc3OC(F)(F)F)c2)nc1C(=O)N[C@H]1CCCNC1 [Example 919, 3-amino-N-[(3S)-piperidin-3-yl]-6-[3-({[({2-[(trifluoromethyl)oxy]phenyl}amino)carbonyl]amino}methyl)phenyl]pyrazine-2-carboxamide] | 50 to 1000 |
| CSc1ccccc1NC(=O)NCc1cccc(-c2cnc(N)c(C(=O)N[C@H]3CCCNC3)n2)c1 [Example 920, 3-amino-6-(3-{[({[2-(methylthio)phenyl]amino}carbonyl)amino]methyl}phenyl)-N-[(3S)-piperidin-3-yl]pyrazine-2-carboxamide] | < 50 |
| Cc1cc(Br)cc(NC(=O)NCc2cccc(-c3cnc(N)c(C(=O)N[C@H]4CCCNC4)n3)c2)c1 [Example 921, 3-amino-6-{3-[({[(3-bromo-5-methylphenyl)amino]carbonyl}amino)methyl]phenyl}-N-[(3S)-piperidin-3-yl]pyrazine-2-carboxamide] | < 50 |
| Nc1ncc(-c2cccc(CNC(=O)Nc3ccccc3Br)c2)nc1C(=O)N[C@H]1CCCNC1 [Example 922, 3-amino-6-{3-[({[(2-bromophenyl)amino]carbonyl}amino)methyl]phenyl}-N-[(3S)-piperidin-3-yl]pyrazine-2-carboxamide] | < 50 |
| NCc1cccc(-c2cnc(N)c(-c3nc([C@H]4CCCNC4)n[nH]3)n2)c1 [Example 923, 5-[3-(aminomethyl)phenyl]-3-{3-[(3S)-piperidin-3-yl]-1H-1,2,4-triazol-5-yl}pyrazin-2-amine] | < 50 |
| CN1CCN(c2ccc(CNC(=O)c3cccc(-c4cnc(N)c(C(=O)N[C@H]5CCCNC5)n4)c3)cc2)CC1 [Example 924, 3-amino-6-{3-[({[4-(4-methylpiperazin-1-yl)phenyl]methyl}amino)carbonyl]phenyl}-N-[(3S)-piperidin-3-yl]pyrazine-2-carboxamide] | < 50 |
| Nc1ncc(-c2cccc(C(=O)NCCc3ccc(F)cc3)c2)nc1C(=O)N[C@H]1CCCNC1 [Example 925, 3-amino-6-[3-({[2-(4-fluorophenyl)ethyl]amino}carbonyl)phenyl]-N-[(3S)-piperidin-3-yl]pyrazine-2-carboxamide] | < 50 |
| Nc1ncc(-c2cccc(C(=O)NCCN3CCOCC3)c2)nc1C(=O)N[C@H]1CCCNC1 [Example 926, 3-amino-6-(3-{[(2-morpholin-4-ylethyl)amino]carbonyl}phenyl)-N-[(3S)-piperidin-3-yl]pyrazine-2-carboxamide] | 50 to 1000 |
| Nc1ncc(-c2cccc(C(=O)NC[C@H]3CCCN3)c2)nc1C(=O)N[C@H]1CCCNC1 [Example 927, 3-amino-N-[(3S)-piperidin-3-yl]-6-[3-({[(2R)-pyrrolidin-2-ylmethyl]amino}carbonyl)phenyl]pyrazine-2-carboxamide] | < 50 |
| Nc1ncc(-c2cccc(C(=O)N[C@H]3CCCN3)c2)nc1C(=O)N[C@H]1CCCNC1 [Example 928, 3-amino-N-[(3S)-piperidin-3-yl]-6-(3-{[(2S)-pyrrolidin-2-ylamino]carbonyl}phenyl)pyrazine-2-carboxamide] | < 50 |
| Nc1ncc(-c2cccc(C(=O)NC3CCCC3)c2)nc1C(=O)N[C@H]1CCCNC1 [Example 929, 3-amino-6-{3-[(cyclopentylamino)carbonyl]phenyl}-N-[(3S)-piperidin-3-yl]pyrazine-2-carboxamide] | 50 to 1000 |
| Nc1ncc(-c2cccc(CNC(=O)Nc3ccc(OC(F)(F)F)cc3)c2)nc1C(=O)N[C@H]1CCCNC1 [Example 930, 3-amino-N-[(3S)-piperidin-3-yl]-6-[3-({[({4-[(trifluoromethyl)oxy]phenyl}amino)carbonyl]amino}methyl)phenyl]pyrazine-2-carboxamide] | < 50 |
| Nc1ncc(-c2cccc(CNC(=O)Nc3ccc(C(F)(F)F)cc3)c2)nc1C(=O)N[C@H]1CCCNC1 [Example 931, 3-amino-N-[(3S)-piperidin-3-yl]-6-(3-{[({[4-(trifluoromethyl)phenyl]amino}carbonyl)amino]methyl}phenyl)pyrazine-2-carboxamide] | < 50 |
| COc1ccc(C(=O)NCc2cccc(-c3cnc(N)c(C(=O)N[C@H]4CCCNC4)n3)c2)cc1 [Example 932, 3-amino-6-{3-[({[4-(methyloxy)phenyl]carbonyl}amino)methyl]phenyl}-N-[(3S)-piperidin-3-yl]pyrazine-2-carboxamide] | < 50 |
| Nc1ncc(-c2cccc(CNC(=O)c3ccc(-c4ccccc4)cc3)c2)nc1C(=O)N[C@H]1CCCNC1 [Example 933, 3-amino-6-(3-{[(biphenyl-4-ylcarbonyl)amino]methyl}phenyl)-N-[(3S)-piperidin-3-yl]pyrazine-2-carboxamide] | < 50 |
| Nc1ncc(-c2cccc(CNC(=O)c3ccco3)c2)nc1C(=O)N[C@H]1CCCNC1 [Example 934, 3-amino-6-(3-{[(furan-2-ylcarbonyl)amino]methyl}phenyl)-N-[(3S)-piperidin-3-yl]pyrazine-2-carboxamide] | < 50 |
| Nc1ncc(-c2cccc(CNC(=O)Nc3ccc4c(c3)OCCO4)c2)nc1C(=O)N[C@H]1CCCNC1 [Example 935, 3-amino-6-[3-({[(2,3-dihydro-1,4-benzodioxin-6-ylamino)carbonyl]amino}methyl)phenyl]-N-[(3S)-piperidin-3-yl]pyrazine-2-carboxamide] | < 50 |
| Nc1ncc(-c2cccc(CNC(=O)c3ccc4c(c3)CCO4)c2)nc1C(=O)N[C@H]1CCCNC1 [Example 936, 3-amino-6-(3-{[(2,3-dihydro-1-benzofuran-5-ylcarbonyl)amino]methyl}phenyl)-N-[(3S)-piperidin-3-yl]pyrazine-2-carboxamide] | < 50 |
| Nc1ncc(-c2cccc(CNS(=O)(=O)c3ccc4c(c3)OCCO4)c2)nc1C(=O)N[C@H]1CCCNC1 [Example 937, 3-amino-6-(3-{[(2,3-dihydro-1,4-benzodioxin-6-ylsulfonyl)amino]methyl}phenyl)-N-[(3S)-piperidin-3-yl]pyrazine-2-carboxamide] | < 50 |
| Nc1ncc(-c2cccc(CNC(=O)c3cccs3)c2)nc1C(=O)N[C@H]1CCCNC1 [Example 938, 3-amino-N-[(3S)-piperidin-3-yl]-6-(3-{[(2-thienylcarbonyl)amino]methyl}phenyl)pyrazine-2-carboxamide] | < 50 |
| Nc1ncc(-c2cccc(CNC(=O)C3COc4ccccc4O3)c2)nc1C(=O)N[C@H]1CCCNC1 (stereo partly drawn) [Example 939, 3-amino-6-(3-{[(2,3-dihydro-1,4-benzodioxin-2-ylcarbonyl)amino]methyl}phenyl)-N-[(3S)-piperidin-3-yl]pyrazine-2-carboxamide] | < 50 |
| Nc1ncc(-c2cccc(CNC(=O)c3ccccc3Cl)c2)nc1-c1nc([C@H]2CCCNC2)n[nH]1 [Example 940, N-{[3-(5-amino-6-{3-[(3S)-piperidin-3-yl]-1H-1,2,4-triazol-5-yl}pyrazin-2-yl)phenyl]methyl}-2-chlorobenzamide] | < 50 |
| Nc1ncc(-c2cccc(CNC(=O)c3ccc(Cl)cc3)c2)nc1-c1nc([C@H]2CCCNC2)n[nH]1 [Example 941, N-{[3-(5-amino-6-{3-[(3S)-piperidin-3-yl]-1H-1,2,4-triazol-5-yl}pyrazin-2-yl)phenyl]methyl}-4-chlorobenzamide] | < 50 |
| Nc1ncc(-c2cccc(CNC(=O)c3ccc(I)cc3)c2)nc1-c1nc([C@H]2CCCNC2)n[nH]1 [Example 942, N-{[3-(5-amino-6-{3-[(3S)-piperidin-3-yl]-1H-1,2,4-triazol-5-yl}pyrazin-2-yl)phenyl]methyl}-4-iodobenzamide] | < 50 |
| Nc1ncc(-c2cccc(CNC(=O)c3cc(F)cc(F)c3)c2)nc1-c1nc([C@H]2CCCNC2)n[nH]1 [Example 943, N-{[3-(5-amino-6-{3-[(3S)-piperidin-3-yl]-1H-1,2,4-triazol-5-yl}pyrazin-2-yl)phenyl]methyl}-3,5-difluorobenzamide] | < 50 |
| Nc1ncc(-c2cccc(CNC(=O)c3ccc(Br)cc3F)c2)nc1-c1nc([C@H]2CCCNC2)n[nH]1 [Example 944, N-{[3-(5-amino-6-{3-[(3S)-piperidin-3-yl]-1H-1,2,4-triazol-5-yl}pyrazin-2-yl)phenyl]methyl}-4-bromo-2-fluorobenzamide] | < 50 |
| Nc1ncc(-c2cccc(CNC(=O)c3ccc(Br)cc3Cl)c2)nc1-c1nc([C@H]2CCCNC2)n[nH]1 [Example 945, N-{[3-(5-amino-6-{3-[(3S)-piperidin-3-yl]-1H-1,2,4-triazol-5-yl}pyrazin-2-yl)phenyl]methyl}-4-bromo-2-chlorobenzamide] | < 50 |
